Measured values: US20140221372A1, “METHOD OF ADMINISTRATION AND TREATMENT” (GlaxoSmithKline Intellectual Property (NO 2.) Limited, priority 2013, published 2014)
Several values for one entry are separate records, joined by “and”; a condition that tells them apart may be missing. Identical values can stand only once.

Assays:
Type in all cases: in vivo, human
[1] = tested on: hepatocellular cancer (HCC) subjects; assay: Pharmacogenetic analysis: association of genetic variants with TTP and OS in Asian HCC subjects receiving foretinib; conditions: foretinib 30 mg QD; for Median TTP: (95% CI)
Method: Asian HCC subjects treated with the maximum tolerated dose (MTD) of 30 mg QD and provided informed consent and blood sample for PGx research (n=31 of 39 subjects treated) were selected for PGx analysis. Of the 31 subjects who provided consent, 28 subjects were evaluable for objective response rate (ORR) and 30 for time to progression (TTP) and overall survival (OS).
Venous blood was collected from each PGx consented subject into an ethylenediaminetetraacetic acid (EDTA) vacutainer for PGx analysis. DNA was extracted using the Qiagen Autopure automated DNA extraction by Covance (Indianapolis, Ind., USA) and was genotyped for 20 single nucleotide polymorphisms (SNPs) with potential functional consequence from 13 candidate genes. The list of the genetic variants including their unique identifier (rs ID) and allele frequency in Asian population is included in Table 1. Genotyping of the SNPs was done via Sanger sequencing, or using custom TaqMan® SNP genotyping assays (Applied Biosystems, Foster City, Calif., USA) internally at GlaxoSmithKline or via TaqMan® custom or Assay on Demand genotyping assays (Applied Biosystems, Foster City, Calif., USA) by Gen-Probe (Wythenshawe, Manchester, UK).
Association with ORR was evaluated using Fisher's Exact Test (FET). Association with TTP and OS was tested using time-to-event (progression) models, using the Score (log rank) test. Since one of the haplotypes CAT (a unique combination of ‘C’, ‘A’, and ‘T’ alleles of SNPs—rs2307424, rs2307418, and rs4073054, respectively) in gene NR1I3/CAR (nuclear receptor subfamily 1, group I, member 3/constitutive androstane receptor) was previously reported to be associated with worse progression-free survival in sunitinib-treated renal cell carcinoma subjects (Van der Veldt 2011), the 3 SNPs in NR1I3 (were analyzed separately and together as a haplotype for association with clinical endpoints (see Tables 1 and 2). Similarly, the 3 SNPs in ABCB1 (ATP-binding cassette, subfamily B, member 1) were also analyzed separately and together as a haplotype.
Because of the limited sample size of the study, genetic analyses were performed without adjustment for baseline demographics or potential covariates, and p-values were not adjusted for multiple testing.

[2] = tested on: CAF (Cytokine and Angiogenic Factor) levels; assay: Circulating pharmacodynamic markers: CAF time course, percent change from baseline (Searchlight platform)
Method: (§1) Blood was collected at baseline (Day 1) and post treatment with 30 mg/daily of foretinib on Days 8, 15, and 22. CAF (Cytokine and Angiogenic Factor) levels were determined. CAF levels were determined by using the Searchlight platform (Aushon Biosciences). Levels of circulating sMET and HGF were determined using Meso Scale Discovery Platform (Don Bottaro, National Cancer Institute [NCI]). The biomarker analysis population was predefined to include patients who met the following criteria: • Patient is in a 30 mg cohort. • Pharmacodynamic (PD)-sample data available at baseline and for at least 1 post-baseline timepoint, and • Patient received at least 75% of planned doses up to time of last PD sample. CAF percent changes from baseline were assessed for each CAF, at each time point, for available data in the biomarker population, using the Wilcoxon Signed Rank Test.

sMET = assay: Circulating sMET level, percent change from baseline (Meso Scale Discovery Platform); conditions: Day 8, 30 mg/daily
Method: as §1

[3] = tested on: hepatocellular carcinoma patients; assay: Association between baseline (Day 1) CAF levels and TTP / OS in patients on foretinib
Method: Blood was collected at baseline (Day 1) and post treatment with 30 mg/daily of foretinib on Days 8, 15, and 22. CAF (Cytokine and Angiogenic Factor) levels were determined. CAF levels were determined by using the Searchlight platform (Aushon Biosciences). Levels of circulating sMET and HGF were determined using Meso Scale Discovery Platform (Don Bottaro, National Cancer Institute [NCI]).
The biomarker analysis population was predefined to include patients who met the following criteria: • Patient is in a 30 mg cohort. • Pharmacodynamic (PD)-sample data available at baseline and for at least 1 post-baseline timepoint, and • Patient received at least 75% of planned doses up to time of last PD sample.
Association between day 1 CAF levels and TTP was assessed using univariate and multivariate (covariate adjusted) proportional hazards regression analysis. CAF data were transformed (log2) where appropriate.
Association between day 1 CAF levels and OS was assessed using univariate and multivariate (covariate adjusted) proportional hazards regression analysis. CAF data were transformed (log2) where appropriate. For statistically significant CAF's in the OS statistical models, a combined model of the significant CAF's will be explored, in which an optimal predictive combination of the CAF's (including optimal cutoffs) will be investigated. The method employed to explore the CAF's will depend upon the number of significant CAF's, and will be described in the results section.

COc1cc2c(Oc3ccc(NC(=O)C4(C(=O)Nc5ccc(F)cc5)CC4)cc3F)ccnc2cc1OCCCN1CCOCC1 [foretinib]
Median TTP ([1]; ABCB1 rs1045642 TC or TT genotype): 8 months and 8.21 (2.17-NE) months | median OS ([1]; NR1I3 CAT/CAT): 5.9 months | Median TTP ([1]; NR1I3 CAT/− or −/− (1 or no copy, other haplotypes)): 6.21 (2.96-NE) months | Median TTP ([1]; NR1I3 haplotype CAT/CAT (2 copies)): 1.92 (1.51-NE*) months | median OS ([1]; NR1I3 other haplotypes): 8.5 months | Clusterin Percent Change from baseline ([2]; Day 8, 30 mg/daily): 25% | FASL Percent Change from baseline ([2]; Day 8, 30 mg/daily): 26% | GCSF Percent Change from baseline ([2]; Day 8, 30 mg/daily): 46% | IGFBP3 Percent Change from baseline ([2]; Day 8, 30 mg/daily): 19% | IL6 Percent Change from baseline ([2]; Day 8, 30 mg/daily): 58% | PLGF Percent Change from baseline ([2]; Day 8, 30 mg/daily): 105% | TRAIL Percent Change from baseline ([2]; Day 8, 30 mg/daily): 25% | TSP2 Percent Change from baseline ([2]; Day 8, 30 mg/daily): −14% | VCAM1 Percent Change from baseline ([2]; Day 8, 30 mg/daily): 28% | VEGF Percent Change from baseline ([2]; Day 8, 30 mg/daily): 61% | ANG2 Percent Change from baseline ([2]; Day 15, 30 mg/daily): −24% | FASL Percent Change from baseline ([2]; Day 15, 30 mg/daily): 20% | IGFBP3 Percent Change from baseline ([2]; Day 15, 30 mg/daily): 13% | IL6 Percent Change from baseline ([2]; Day 15, 30 mg/daily): 124% | IL8 Percent Change from baseline ([2]; Day 15, 30 mg/daily): 20% | PLGF Percent Change from baseline ([2]; Day 15, 30 mg/daily): 130% | SCF Percent Change from baseline ([2]; Day 15, 30 mg/daily): −14% | TRAIL Percent Change from baseline ([2]; Day 15, 30 mg/daily): 17% | TSP2 Percent Change from baseline ([2]; Day 15, 30 mg/daily): −19% | VCAM1 Percent Change from baseline ([2]; Day 15, 30 mg/daily): 43% | VEGF Percent Change from baseline ([2]; Day 15, 30 mg/daily): 83% | VEGFR2 Percent Change from baseline ([2]; Day 15, 30 mg/daily): −21% | ANG2 Percent Change from baseline ([2]; Day 22, 30 mg/daily): −17% | Clusterin Percent Change from baseline ([2]; Day 22, 30 mg/daily): 23% | FASL Percent Change from baseline ([2]; Day 22, 30 mg/daily): 44% | IGFBP3 Percent Change from baseline ([2]; Day 22, 30 mg/daily): 17% | IL6 Percent Change from baseline ([2]; Day 22, 30 mg/daily): 111% | PLGF Percent Change from baseline ([2]; Day 22, 30 mg/daily): 120% | TRAIL Percent Change from baseline ([2]; Day 22, 30 mg/daily): 24% | VCAM1 Percent Change from baseline ([2]; Day 22, 30 mg/daily): 64% | VEGF Percent Change from baseline ([2]; Day 22, 30 mg/daily): 83% | VEGFR2 Percent Change from baseline ([2]; Day 22, 30 mg/daily): −21% | sMET Percent Change from baseline (sMET): 12% | longer TTP, lower vs higher levels of IL6 ([3]; median split of baseline IL6 levels, 30 mg cohort): ~6.7 month | deaths ([3]; patients in the highest quartile of baseline IL6): 10/10 | deaths ([3]; patients in the highest quartile of baseline IL8): 9/10 | deaths ([3]; patients in the lowest quartiles of baseline IL6 and IL8 (all patients censored)): 0/9 | TTP ([3]; patients with higher baseline levels of IL6 (median split), 30 mg cohort): 2.9 months | TTP ([3]; patients with lower baseline levels of IL6 (median split), 30 mg cohort): 9.6 months | median survival ([3]; patients with unfavorable levels of IL6 and IL8 (group 1 in FIG. 6)): 6 months
